Read-outs that look alike come from different tables or passages of the source.
Target: T1, pY705-STAT3 in PBMC (Homo sapiens, UniProt P40763)
T1 construct: Cryopreserved Peripheral Blood Mononuclear Cells (PBMC) are from AllCells; host or cells: cryopreserved PBMC
Test: MSD-pSTAT-PBMC Assay (pSTAT3, IL-6 stimulated)
Type: cell-based
Settings: compound 3 hrs, then 10 ng/mL IL-6 for 10 min, Table 115
Method in brief: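 Thawed human PBMC rested overnight in IMDM/10% FBS, then got compound for 3 hrs before a 10 min cytokine pulse: 1 ng/mL IL-4 for pSTAT6, 10 ng/mL IL-6 for pSTAT3. Lysates went to MSD sandwich capture on total STAT6 or STAT3 with phospho-specific detection. IC50 came from background-subtracted, DMSO-normalized signal.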

T1 sequence (P40763 whole entry): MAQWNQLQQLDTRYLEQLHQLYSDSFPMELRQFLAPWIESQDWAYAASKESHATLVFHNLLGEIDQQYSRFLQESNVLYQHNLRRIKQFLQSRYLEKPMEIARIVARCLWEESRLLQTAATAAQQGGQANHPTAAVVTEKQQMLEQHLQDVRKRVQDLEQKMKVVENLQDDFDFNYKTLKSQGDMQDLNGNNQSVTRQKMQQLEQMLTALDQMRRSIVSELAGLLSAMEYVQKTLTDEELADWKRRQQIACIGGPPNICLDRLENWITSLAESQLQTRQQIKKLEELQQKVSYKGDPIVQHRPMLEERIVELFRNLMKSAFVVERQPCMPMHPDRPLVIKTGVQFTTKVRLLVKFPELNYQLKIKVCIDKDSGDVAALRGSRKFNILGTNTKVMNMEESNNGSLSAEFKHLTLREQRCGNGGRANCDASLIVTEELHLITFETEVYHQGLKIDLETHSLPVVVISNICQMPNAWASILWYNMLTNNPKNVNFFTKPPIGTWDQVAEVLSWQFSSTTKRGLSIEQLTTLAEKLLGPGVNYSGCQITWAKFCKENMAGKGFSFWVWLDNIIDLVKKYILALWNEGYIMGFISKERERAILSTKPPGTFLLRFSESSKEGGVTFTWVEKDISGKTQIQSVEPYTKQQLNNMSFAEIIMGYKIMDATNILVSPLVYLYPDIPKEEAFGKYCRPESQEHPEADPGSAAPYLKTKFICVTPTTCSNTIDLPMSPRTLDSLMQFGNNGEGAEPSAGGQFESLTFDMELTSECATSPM

Row | Structure (SMILES) | IC50 (PBMC, read-out: STAT3) [µM] | IC50 (STAT3, PBMC) [µM]
1 | CCCOC(=O)[C@H](C)NP(=O)(Oc1ccccc1)[C@@H](F)c1ccc2sc(C(=O)N[C@H]3CCC[C@H]4CC[C@@H](C(=O)N5CC(c6cnccc6N6CCOCC6)C5)N4C3=O)cc2c1 (stereo partly drawn) [Compound 1064, propyl (((R)-fluoro(2-(((3S,6S,9aS)-3-(3-(4-morpholinopyridin-3-yl)azetidine-1-carbonyl)-5-oxooctahydro-1H-pyrrolo[1,2-a]azepin-6-yl)carbamoyl)benzo [b]thiophen-5-yl)methyl)(phenoxy)phosphoryl)-L-alaninate] | < 0.1 | 
2 | CCCOC(=O)[C@H](C)NP(=O)(Oc1ccccc1)[C@H](F)c1ccc2sc(C(=O)N[C@H]3CCC[C@H]4CC[C@@H](C(=O)N5CC(c6cnccc6N6CCOCC6)C5)N4C3=O)cc2c1 (stereo partly drawn) [Compound 1065, propyl (((S)-fluoro(2-(((3S,6S,9aS)-3-(3-(4-morpholinopyridin-3-yl)azetidine-1-carbonyl)-5-oxooctahydro-1H-pyrrolo[1,2-a]azepin-6-yl)carbamoyl)benzo [b]thiophen-5-yl)methyl)(phenoxy)phosphoryl)-L-alaninate] | < 0.1 | 
3 | CCCOC(=O)[C@H](C)NP(=O)(Oc1ccccc1)[C@@H](F)c1ccc2sc(C(=O)N[C@H]3CCC[C@H]4CC[C@@H](C(=O)N5CC(c6cncnc6N6CCOCC6)C5)N4C3=O)cc2c1 (stereo partly drawn) [Compound 1066, propyl (((R)-fluoro(2-(((3S,6S,9aS)-3-(3-(4-morpholino-pyrimidin-5-yl)azetidine-1-carbonyl)-5-oxooctahydro-1H-pyrrolo[1,2-a]azepin-6-yl)carbamoyl)benzo [b]thiophen-5-yl)methyl)(phenoxy)phosphoryl)-L-alaninate] | 0.1 to 1 | 
4 | CCCOC(=O)[C@H](C)NP(=O)(Oc1ccccc1)[C@H](F)c1ccc2sc(C(=O)N[C@H]3CCC[C@H]4CC[C@@H](C(=O)N5CC(c6cncnc6N6CCOCC6)C5)N4C3=O)cc2c1 (stereo partly drawn) [Compound 1067, propyl (((S)-fluoro(2-(((3S,6S,9aS)-3-(3-(4-morpholinopyrimidin-5-yl)azetidine-1-carbonyl)-5-oxooctahydro-1H-pyrrolo[1,2-a]azepin-6-yl)carbamoyl)benzo [b]thiophen-5-yl)methyl)(phenoxy)phosphoryl)-L-alaninate] | 0.1 to 1 | 
5 | CCCOC(=O)[C@H](C)NP(=O)(Oc1ccccc1)[C@H](F)c1ccc2sc(C(=O)N[C@H]3CCC[C@H]4CC[C@@H](C(=O)N5CC(c6cncnc6N(C)C)C5)N4C3=O)cc2c1 (some centres unmarked) [Compound 1068] | < 0.1 | 
6 | CCCOC(=O)[C@H](C)NP(=O)(Oc1ccccc1)[C@@H](F)c1ccc2sc(C(=O)N[C@H]3CCC[C@H]4CC[C@@H](C(=O)N5CC(c6cncnc6N(C)C)C5)N4C3=O)cc2c1 (some centres unmarked) [Compound 1069] | < 0.1 | 
7 | CCCOC(=O)[C@H](C)NP(=O)(Cc1ccc2sc(C(=O)N[C@H]3CCC[C@H]4CC[C@@H](C(=O)N5CC(c6cncnc6N(C)C)C5)N4C3=O)cc2c1)Oc1ccccc1 (stereo partly drawn) [Compound 1070, propyl (((2-(((3S,6S,9aS)-3-(3-(4-(dimethylamino)pyrimidin-5-yl)azetidine-1-carbonyl)-5-oxooctahydro-1H-pyrrolo[1,2-a]azepin-6-yl)carbamoyl)benzo [b]thiophen-5-yl)methyl)(phenoxy)phosphoryl)-L-alaninate] | < 0.1 | 
8 | CCCOC(=O)[C@H](C)NP(=O)(Oc1ccccc1)[C@@H](F)c1ccc2sc(C(=O)N[C@H]3CCC[C@H]4CC[C@@H](C(=O)N5CC(c6cncnc6N6CC[C@H]6COC)C5)N4C3=O)cc2c1 (stereo partly drawn) [Compound 1071, propyl (((R)-fluoro(2-(((3S,6S,9aS)-3-(3-(4-((S)-2-(methoxymethyl)azetidin-1-yl)pyrimidin-5-yl)azetidine-1-carbonyl)-5-oxooctahydro-1H-pyrrolo[1,2-a]azepin-6-yl)carbamoyl)benzo [b]thiophen-5-yl)methyl)(phenoxy)phosphoryl)-L-alaninate] | < 0.1 | 
9 | CCCOC(=O)[C@H](C)NP(=O)(Cc1ccc2sc(C(=O)N[C@H]3CCC[C@H]4CC[C@@H](C(=O)N5CC(c6cncnc6N6CC[C@H]6COC)C5)N4C3=O)cc2c1)Oc1ccccc1 (stereo partly drawn) [Compound 1072, propyl (((2-(((3S,6S,9aS)-3-(3-(4-((S)-2-(methoxymethyl)azetidin-1-yl)pyrimidin-5-yl)azetidine-1-carbonyl)-5-oxooctahydro-1H-pyrrolo[1,2-a]azepin-6-yl)carbamoyl)benzo [b]thiophen-5-yl)methyl)(phenoxy)phosphoryl)-L-alaninate] | < 0.1 | 
10 | CCCOC(=O)[C@H](C)NP(=O)(Oc1ccccc1)[C@@H](F)c1ccc2sc(C(=O)N[C@H]3CCC[C@H]4CC[C@@H](C(=O)N5CC(c6cncc(F)c6OC)C5)N4C3=O)cc2c1 (stereo partly drawn) [Compound 1073, propyl (((R)-fluoro(2-(((3S,6S,9aS)-3-(3-(5-fluoro-4-methoxypyridin-3-yl)azetidine-1-carbonyl)-5-oxooctahydro-1H-pyrrolo[1,2-a]azepin-6-yl)carbamoyl)benzo [b]thiophen-5-yl)methyl)(phenoxy)phosphoryl)-L-alaninate] | 0.1 to 1 | 
11 | CCCOC(=O)[C@H](C)NP(=O)(Cc1ccc2sc(C(=O)N[C@H]3C[C@@H](C)C[C@H]4CC[C@@H](C(=O)N5CC(c6cncnc6N6CCC6)C5)N4C3=O)cc2c1)Oc1ccccc1 (stereo partly drawn) [Compound 1074, propyl (((2-(((3S,6S,8R,9aR)-3-(3-(4-(azetidin-1-yl)pyrimidin-5-yl)azetidine-1-carbonyl)-8-methyl-5-oxooctahydro-1H-pyrrolo[1,2-a]azepin-6-yl)carbamoyl)benzo [b]thiophen-5-yl)methyl)(phenoxy)phosphoryl)-L-alaninate] | < 0.1 | 
12 | CCCOC(=O)[C@H](C)NP(=O)(Oc1ccccc1)[C@@H](F)c1ccc2sc(C(=O)N[C@H]3CCC[C@H]4CC[C@@H](C(=O)N5CC(c6cncnc6N6CCC6)C5)N4C3=O)cc2c1 (some centres unmarked) [Compound 1075] | < 0.1 | 
13 | CCCOC(=O)[C@H](C)NP(=O)(Oc1ccccc1)[C@H](F)c1ccc2sc(C(=O)N[C@H]3CCC[C@H]4CC[C@@H](C(=O)N5CC(c6cncnc6N6CCC6)C5)N4C3=O)cc2c1 (some centres unmarked) [Compound 1076] | < 0.1 | 
14 | CCCOC(=O)[C@H](C)NP(=O)(Oc1ccccc1)[C@@H](F)c1ccc2sc(C(=O)N[C@H]3C[C@@H](C)C[C@H]4CC[C@@H](C(=O)N5CC(c6cncnc6N6CCC6)C5)N4C3=O)cc2c1 (some centres unmarked) [Compound 1077] | < 0.1 | 
15 | CCCOC(=O)[C@H](C)NP(=O)(Oc1ccccc1)[C@H](F)c1ccc2sc(C(=O)N[C@H]3C[C@@H](C)C[C@H]4CC[C@@H](C(=O)N5CC(c6cncnc6N6CCC6)C5)N4C3=O)cc2c1 (some centres unmarked) [Compound 1078] | < 0.1 | 
16 | CCCOC(=O)[C@H](C)NP(=O)(Cc1ccc2sc(C(=O)N[C@H]3C[C@H](C)C[C@H]4CC[C@@H](C(=O)N5CC(c6cnccc6N(C)C)C5)N4C3=O)cc2c1)Oc1ccccc1 (stereo partly drawn) [Compound 1079, propyl (((2-(((3S,6S,8S,9aR)-3-(3-(4-(dimethylamino)pyridin-3-yl)azetidine-1-carbonyl)-8-methyl-5-oxooctahydro-1H-pyrrolo[1,2-a]azepin-6-yl)carbamoyl)benzo [b]thiophen-5-yl)methyl)(phenoxy)phosphoryl)-L-alaninate] |  | < 0.1
17 | CC(C)CC(=O)SCCOP(=O)(Cc1ccc2sc(C(=O)N[C@H]3CCC[C@H]4CC[C@@H](C(=O)N5CC(c6cccnc6)C5)N4C3=O)cc2c1)OCCSC(=O)CC(C)C [Compound 1084, S,S′-(((((2-(((3S,6S,9aS)-5-oxo-3-(3-(pyridin-3-yl)azetidine-1-carbonyl)octahydro-1H-pyrrolo[1,2-a]azepin-6-yl)carbamoyl)benzo [b]thiophen-5-yl)methyl)phosphoryl)bis(oxy))bis(ethane-2,1-diyl)) bis(3-methylbutanethioate)] | 0.1 to 1 | 
18 | CC(C)CC(=O)SCCOP(=O)(OCOC(=O)OC1COC1)C(F)(F)c1ccc2sc(C(=O)N[C@H]3CCC[C@H]4CC[C@@H](C(=O)N5CC(c6ncccn6)C5)N4C3=O)cc2c1 (stereo partly drawn) [Compound 1095, S-(2-(((difluoro(2-(((3S,6S,9aS)-5-oxo-3-(3-(pyrimidin-2-yl)azetidine-1-carbonyl)octahydro-1H-pyrrolo[1,2-a]azepin-6-yl)carbamoyl)benzo [b]thiophen-5-yl)methyl) ((((oxetan-3-yloxy)carbonyl)oxy)methoxy)phosphoryl)oxy)ethyl) 3-methyl-butanethioate] | < 0.1 | 
19 | CC(C)CC(=O)SCCOP(=O)(OCOC(=O)OC(C)C)[C@H](F)c1ccc2sc(C(=O)N[C@H]3CCC[C@H]4CC[C@@H](C(=O)N5CC(c6cccnc6)C5)N4C3=O)cc2c1 (stereo partly drawn) [Compound 1096, S-(2-((((S)-fluoro(2-(((3S,6S,9aS)-5-oxo-3-(3-(pyridin-3-yl)azetidine-1-carbonyl)octahydro-1H-pyrrolo[1,2-a]azepin-6-yl)carbamoyl)benzo [b]thiophen-5-yl)methyl) (((isopropoxy-carbonyl)oxy)methoxy)phosphoryl)oxy)ethyl) 3-methylbutanethioate] | < 0.1 | 
20 | CC(C)CC(=O)SCCOP(=O)(OCOC(=O)O[C@@H]1CCOC1)C(F)(F)c1ccc2sc(C(=O)N[C@H]3CCC[C@H]4CC[C@@H](C(=O)N5CC(c6ncccn6)C5)N4C3=O)cc2c1 (stereo partly drawn) [Compound 1098, S-(2-(((difluoro(2-(((3S,6S,9aS)-5-oxo-3-(3-(pyrimidin-2-yl)azetidine-1-carbonyl)octahydro-1H-pyrrolo[1,2-a]azepin-6-yl)carbamoyl)benzo [b]thiophen-5-yl)methyl)((((((R)-tetrahydrofuran-3-yl)oxy)carbonyl)oxy)methoxy)phosphoryl)oxy)ethyl) 3-methylbutanethioate] | < 0.1 | 
